Test results as given in ChEMBL document CHEMBL1201862, “PubChem BioAssay data set” (2004).
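How tested: cells in 96-well plates exposed to compound for 48 hours at five concentrations. GI50 marks 50% less growth.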 Activity calls are given as the source filed them. Rule as the data show it: active = GI50 up to about 1.1 µM and inactive = higher.

How the values were obtained:
Assay in all cases: growth of human tumour cells (NCI), 48 h
HCT-116 = system: HCT-116
SK-MEL-2 = system: SK-MEL-2
MOLT-4 = system: MOLT-4
RPMI-8226 = system: RPMI-8226
HL-60 = system: HL-60
A498 = system: A498
Hs-578T = system: Hs-578T
M14 = system: M14
MDA-MB-231 = system: MDA-MB-231
NCI-H226 = system: NCI-H226
BT-549 = system: BT-549
NCI-H522 = system: NCI-H522
NCI-H460 = system: NCI-H460
SNB-19 = system: SNB-19
RXF 393 = system: RXF 393
SF-539 = system: SF-539
UO-31 = system: UO-31
A549 = system: A549
COLO 205 = system: COLO 205
786-0 = system: 786-0
TK-10 = system: TK-10
HOP-62 = system: HOP-62
HCC 2998 = system: HCC 2998
UACC-257 = system: UACC-257
HOP-92 = system: HOP-92
LOX IMVI = system: LOX IMVI
OVCAR-5 = system: OVCAR-5
DU-145 = system: DU-145
K562 = system: K562
SK-OV-3 = system: SK-OV-3
CAKI-1 = system: CAKI-1
UACC-62 = system: UACC-62
NCI/ADR-RES = system: NCI/ADR-RES
HT-29 = system: HT-29
SF-268 = system: SF-268
SNB-75 = system: SNB-75
T47D = system: T47D
IGROV-1 = system: IGROV-1
NCI-H23 = system: NCI-H23
KM12 = system: KM12
U-251 = system: U-251
SF-295 = system: SF-295
HCT-15 = system: HCT-15
CCRF-CEM = system: CCRF-CEM
Malme-3M = system: Malme-3M
SK-MEL-5 = system: SK-MEL-5
MCF7 = system: MCF7
SK-MEL-28 = system: SK-MEL-28
OVCAR-3 = system: OVCAR-3
OVCAR-8 = system: OVCAR-8
SW-620 = system: SW-620
PC-3 = system: PC-3
ACHN = system: ACHN
MDA-N = system: MDA-N
OVCAR-4 = system: OVCAR-4
EKVX = system: EKVX
MDA-MB-435 = system: MDA-MB-435
SN12C = system: SN12C
SR = system: SR

Measured: GI50

O=C(O)CCC1COc2ccccc2O1 (centres undefined)
> 10 µM: HCT-15
inactive: HCT-116 > 10 µM | SK-MEL-2 > 10 µM | MOLT-4 > 10 µM | RPMI-8226 > 10 µM | HL-60 > 10 µM | A498 > 10 µM | Hs-578T > 10 µM | M14 > 10 µM | MDA-MB-231 > 10 µM | NCI-H226 > 10 µM | BT-549 > 10 µM | NCI-H522 > 10 µM | NCI-H460 > 10 µM | SNB-19 > 10 µM | RXF 393 > 10 µM | SF-539 > 10 µM | UO-31 > 10 µM | A549 > 10 µM | COLO 205 > 10 µM | 786-0 > 10 µM | TK-10 > 10 µM | HOP-62 > 10 µM | HCC 2998 > 10 µM | UACC-257 > 10 µM | HOP-92 > 10 µM | LOX IMVI > 10 µM | OVCAR-5 > 10 µM | DU-145 > 10 µM | K562 > 10 µM | SK-OV-3 > 10 µM | CAKI-1 > 10 µM | UACC-62 > 10 µM | NCI/ADR-RES > 10 µM | HT-29 > 10 µM | SF-268 > 10 µM | SNB-75 > 10 µM | T47D > 10 µM | IGROV-1 > 10 µM | NCI-H23 > 10 µM | KM12 > 10 µM | U-251 > 10 µM | SF-295 > 10 µM | CCRF-CEM > 10 µM | Malme-3M > 10 µM | SK-MEL-5 > 10 µM | MCF7 > 10 µM | SK-MEL-28 > 10 µM | OVCAR-3 > 10 µM | OVCAR-8 > 10 µM | SW-620 > 10 µM | PC-3 > 10 µM | ACHN > 10 µM | MDA-N > 10 µM | OVCAR-4 > 10 µM | EKVX > 10 µM | MDA-MB-435 > 10 µM | SN12C > 10 µM

COC(=O)/C=C/[C@@H]1[C@H](C)N1S(=O)(=O)c1ccc(C)cc1 (some centres undefined)
> 100 µM: HCT-15
inactive: HCT-116 > 100 µM | SK-MEL-2 29.7 µM | MOLT-4 > 100 µM | RPMI-8226 > 100 µM | HL-60 > 100 µM | A498 > 100 µM | Hs-578T > 100 µM | M14 > 100 µM | MDA-MB-231 78.7 µM | NCI-H226 > 100 µM | BT-549 > 100 µM | NCI-H522 > 100 µM | NCI-H460 > 100 µM | SNB-19 > 100 µM | RXF 393 > 100 µM | SF-539 > 100 µM | A549 > 100 µM | SR > 100 µM | COLO 205 > 100 µM | 786-0 61.4 µM | TK-10 > 100 µM | HOP-62 > 100 µM | HCC 2998 > 100 µM | UACC-257 > 100 µM | LOX IMVI 56.4 µM | OVCAR-5 > 100 µM | DU-145 > 100 µM | K562 > 100 µM | SK-OV-3 > 100 µM | CAKI-1 > 100 µM | UACC-62 > 100 µM | NCI/ADR-RES > 100 µM | HT-29 > 100 µM | SF-268 > 100 µM | T47D > 100 µM | IGROV-1 > 100 µM | NCI-H23 > 100 µM | U-251 > 100 µM | SF-295 > 100 µM | CCRF-CEM > 100 µM | Malme-3M > 100 µM | SK-MEL-5 > 100 µM | MCF7 > 100 µM | SK-MEL-28 > 100 µM | OVCAR-3 > 100 µM | OVCAR-8 > 100 µM | SW-620 > 100 µM | PC-3 > 100 µM | ACHN > 100 µM | MDA-N > 100 µM | OVCAR-4 > 100 µM | EKVX > 100 µM | MDA-MB-435 > 100 µM | SN12C > 100 µM

COC(=O)C(C)Sc1nc2cc(Cl)ccc2s1 (centres undefined)
inactive: HCT-116 > 100 µM | MOLT-4 > 100 µM | RPMI-8226 > 100 µM | A498 > 100 µM | Hs-578T > 100 µM | M14 > 100 µM | MDA-MB-231 > 100 µM | NCI-H226 > 100 µM | BT-549 > 100 µM | NCI-H522 > 100 µM | NCI-H460 > 100 µM | SNB-19 > 100 µM | RXF 393 > 100 µM | SF-539 > 100 µM | UO-31 > 100 µM | A549 > 100 µM | COLO 205 > 100 µM | 786-0 > 100 µM | HOP-62 > 100 µM | HCC 2998 > 100 µM | UACC-257 > 100 µM | HOP-92 > 100 µM | OVCAR-5 > 100 µM | DU-145 > 100 µM | K562 78.9 µM | SK-OV-3 > 100 µM | CAKI-1 > 100 µM | UACC-62 > 100 µM | NCI/ADR-RES > 100 µM | HT-29 > 100 µM | SF-268 > 100 µM | SNB-75 > 100 µM | T47D > 100 µM | IGROV-1 > 100 µM | NCI-H23 > 100 µM | KM12 > 100 µM | U-251 > 100 µM | SF-295 > 100 µM | CCRF-CEM 78.5 µM | Malme-3M > 100 µM | SK-MEL-5 > 100 µM | MCF7 > 100 µM | SK-MEL-28 > 100 µM | OVCAR-3 > 100 µM | OVCAR-8 > 100 µM | SW-620 > 100 µM | PC-3 > 100 µM | ACHN > 100 µM | MDA-N > 100 µM | OVCAR-4 > 100 µM | EKVX > 100 µM | MDA-MB-435 > 100 µM | SN12C > 100 µM
> 100 µM: HCT-15

CC(O)CN1c2ccccc2Sc2ccccc21 (centres undefined)
> 100 µM: HCT-15
inactive: HCT-116 > 100 µM | MOLT-4 > 100 µM | A498 > 100 µM | Hs-578T > 100 µM | M14 > 100 µM | MDA-MB-231 > 100 µM | NCI-H226 > 100 µM | BT-549 > 100 µM | NCI-H522 > 100 µM | NCI-H460 > 100 µM | SNB-19 > 100 µM | RXF 393 > 100 µM | SF-539 > 100 µM | UO-31 > 100 µM | A549 > 100 µM | COLO 205 > 100 µM | 786-0 > 100 µM | TK-10 > 100 µM | HOP-62 > 100 µM | HCC 2998 > 100 µM | UACC-257 > 100 µM | HOP-92 > 100 µM | LOX IMVI > 100 µM | OVCAR-5 > 100 µM | DU-145 > 100 µM | K562 > 100 µM | SK-OV-3 > 100 µM | CAKI-1 > 100 µM | UACC-62 > 100 µM | NCI/ADR-RES > 100 µM | HT-29 > 100 µM | SF-268 > 100 µM | T47D > 100 µM | IGROV-1 > 100 µM | NCI-H23 > 100 µM | KM12 > 100 µM | U-251 > 100 µM | SF-295 > 100 µM | CCRF-CEM > 100 µM | Malme-3M > 100 µM | SK-MEL-5 > 100 µM | MCF7 > 100 µM | SK-MEL-28 > 100 µM | OVCAR-3 > 100 µM | OVCAR-8 > 100 µM | SW-620 > 100 µM | PC-3 > 100 µM | ACHN > 100 µM | MDA-N > 100 µM | OVCAR-4 > 100 µM | EKVX > 100 µM | MDA-MB-435 > 100 µM | SN12C > 100 µM

Cc1c(Cl)c(C)c(Cl)c(O)c1Cl
21.8 µM: HCT-15
inactive: HCT-116 18.2 µM | SK-MEL-2 13.2 µM | MOLT-4 17.1 µM | RPMI-8226 17.3 µM | HL-60 18.7 µM | A498 19 µM | Hs-578T 19.9 µM | M14 20.5 µM | MDA-MB-231 27 µM | NCI-H226 15.1 µM | BT-549 24.3 µM | NCI-H522 17.9 µM | NCI-H460 24.7 µM | SNB-19 30.5 µM | RXF 393 26 µM | SF-539 29 µM | UO-31 17.4 µM | A549 21.2 µM | COLO 205 60 µM | 786-0 43.3 µM | TK-10 22.1 µM | HOP-62 31.9 µM | HCC 2998 19.8 µM | UACC-257 22.1 µM | HOP-92 19.1 µM | LOX IMVI 26.2 µM | OVCAR-5 35.2 µM | DU-145 37 µM | K562 17.5 µM | SK-OV-3 26.5 µM | CAKI-1 21.4 µM | UACC-62 16.7 µM | NCI/ADR-RES 22.2 µM | HT-29 48.5 µM | SF-268 26.7 µM | SNB-75 23.9 µM | T47D 24.8 µM | IGROV-1 44.3 µM | NCI-H23 28.1 µM | KM12 26.3 µM | U-251 16.3 µM | SF-295 24.8 µM | CCRF-CEM 33.7 µM | Malme-3M 15.2 µM | SK-MEL-5 15.3 µM | MCF7 31.6 µM | SK-MEL-28 38.4 µM | OVCAR-3 19.5 µM | OVCAR-8 30.3 µM | SW-620 34.3 µM | PC-3 19.8 µM | ACHN 22.8 µM | MDA-N 24.6 µM | OVCAR-4 26 µM | EKVX 26.4 µM | MDA-MB-435 18.9 µM | SN12C 24.2 µM
